The target of this assay is T1, Recombinant human mPGES-1 (Homo sapiens, UniProt O14684).
T1 sequence (O14684 1-152): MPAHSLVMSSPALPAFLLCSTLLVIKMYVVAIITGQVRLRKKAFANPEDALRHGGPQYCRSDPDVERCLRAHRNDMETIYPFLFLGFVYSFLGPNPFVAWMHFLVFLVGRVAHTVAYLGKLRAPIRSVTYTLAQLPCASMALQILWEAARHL
Nature of the assay: In-vitro mPGES-1 enzyme inhibition assay (PGE2 formation from PGH2, HTRF detection). Format: biochemical. Conditions: for inhibition at 1 µM: 1 μM test compound, read-out: Percentage inhibition at 1 μM; for inhibition at 1 µM / inhibition at 10 µM: recombinant human mPGES-1 microsomal fraction; for inhibition at 10 µM: 10 μM test compound, read-out: Percentage inhibition at 10 μM; for IC50: class symbols, selected examples. Put shortly:
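Crude microsomal fractions containing recombinant human mPGES-1 (40-60 μg/mL protein) convert PGH2 to PGE2 in the presence of reduced glutathione, with 0.5% final DMSO. Reaction stopped with stannous chloride, and PGE2 measured by anti-PGE2 antibody (HTRF) detection. IC50 by nonlinear regression of % inhibition versus uninhibited enzyme control.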
(Time-resolved FRET reads energy transfer from a long-lived donor to a nearby acceptor.)

Some results are limits rather than exact numbers.

The term inhibition denotes the drop in the measured response relative to a control, in per cent. For orientation: IC50 means the concentration that gives 50% inhibition. As to `CC1(C)Cc2c(c(C(=O)Nc3ccccc3C(F)(F)F)cc3nc(Nc4c(F)cccc4Cl)[nH]c23)O1` [Example-77, 2-[(2-Chloro-6-fluorophenyl)amino]-7,7-dimethyl-N-[2-(trifluoromethyl)phenyl]-7,8-dihydro-1H-furo[3,2-e]benzimidazole-5-carboxamide], the inhibition at 1 µM is 93.1%, the inhibition at 10 µM was 89.9% and the IC50 is less than 50 nM.
Consider `CC1(C)Cc2c(c(C(=O)Nc3ccc(Br)cc3)cc3nc(Nc4ccccc4Cl)[nH]c23)O1` [Example-78, N-(4-Bromophenyl)-2-[(2-chlorophenyl)amino]-7,7-dimethyl-7,8-dihydro-1H-furo[3,2-e]benzimidazole-5-carboxamide], for which the inhibition at 1 µM stood at 88.5%, the inhibition at 10 µM is 96.4% and the IC50 is less than 50 nM.
In the same order, the values of `CC1(C)Cc2c(c(C(=O)Nc3ccccc3C(F)(F)F)cc3nc(Nc4ccccc4Cl)[nH]c23)O1` [Example-79, 2-[(2-Chlorophenyl)amino]-7,7-dimethyl-N-[2-(trifluoromethyl)phenyl]-7,8-dihydro-1H-furo[3,2-e]benzimidazole-5-carboxamide] are 97.4%, 91.9% and 50 to 100 nM.
Take `CC1(C)Cc2c(c(C(=O)NCc3ccccc3C(F)(F)F)cc3nc(Nc4c(F)cccc4Cl)[nH]c23)O1` [Example-80, 2-[(2-Chloro-6-fluorophenyl)amino]-7,7-dimethyl-N-[2-(trifluoromethyl)benzyl]-7,8-dihydro-1H-furo[3,2-e]benzimidazole-5-carboxamide]: the inhibition at 1 µM is 93.2%, the inhibition at 10 µM worked out at 92% and the IC50 was less than 50 nM.
In the same order, the values of `CC1(C)Cc2c(c(C(=O)NCc3ccccc3C(F)(F)F)cc3nc(Nc4c(Cl)cccc4Cl)[nH]c23)O1` [Example-82, 2-[(2,6-Dichlorophenyl)amino]-7,7-dimethyl-N-[2-(trifluoromethyl)benzyl]-7,8-dihydro-1H-furo[3,2-e]benzimidazole-5-carboxamide] are 94.1%, 97.6% and less than 50 nM.
With `CC1(C)Cc2c(c(C(=O)NCCc3ccc(Cl)cc3)cc3nc(Nc4c(Cl)cccc4Cl)[nH]c23)O1` [Example-83, N-[2-(4-Chlorophenyl)ethyl]-2-[(2,6-dichlorophenyl)amino]-7,7-dimethyl-7,8-dihydro-1H-furo[3,2-e]benzimidazole-5-carboxamide], the inhibition at 1 µM was 87.7%, the inhibition at 10 µM turned out to be 89.3% and the IC50 was less than 50 nM.
For `CC1(C)Cc2c(c(C(=O)NCc3ccccc3Br)cc3nc(Nc4c(Cl)cccc4Cl)[nH]c23)O1` [Example-84, N-(2-Bromobenzyl)-2-[(2,6-dichlorophenyl)amino]-7,7-dimethyl-7,8-dihydro-1H-furo[3,2-e]benzimidazole-5-carboxamide] the same measures were 93.7%, 94.4% and less than 50 nM.
With `Cc1cc2c(o1)c(C(=O)NCc1ccccc1C(F)(F)F)cc1nc(Nc3c(Cl)cccc3Cl)[nH]c12` [Example-85, 2-[(2,6-Dichlorophenyl)amino]-7-methyl-N-[2-(trifluoromethyl)benzyl]-1H-furo[3,2-e]benzimidazole-5-carboxamide], the inhibition at 1 µM came to 93.3%, the inhibition at 10 µM amounted to 95.4% and the IC50 lay in the range of 50 to 100 nM.
With `CC1(C)Cc2c(c(C(=O)Nc3ccc(C(F)(F)F)cc3)cc3nc(Nc4ccc(F)cc4Cl)[nH]c23)O1` [Example-86, 2-[(2-Chloro-4-fluorophenyl)amino]-7,7-dimethyl-N-[4-(trifluoromethyl)phenyl]-7,8-dihydro-1H-furo[3,2-e]benzimidazole-5-carboxamide], the inhibition at 1 µM is 95%, the inhibition at 10 µM came out at 98.7% and the IC50 was less than 50 nM.
In the same order, the values of `Cc1ccc(Nc2nc3cc(C(=O)Nc4ccc(C(F)(F)F)cc4)c4c(c3[nH]2)CC(C)(C)O4)c(Cl)c1` [Example-87, 2-[(2-Chloro-4-methylphenyl)amino]-7,7-dimethyl-N-[4-(trifluoromethyl)phenyl]-7,8-dihydro-1H-furo[3,2-e]benzimidazole-5-carboxamide] are 87.4%, 92.2% and less than 50 nM.
In the same order, the values of `CC1(C)Cc2c(c(C(=O)NCc3ccccc3C(F)(F)F)cc3nc(Nc4ccccc4Cl)[nH]c23)O1` [Example-88, 2-[(2-Chlorophenyl)amino]-7,7-dimethyl-N-[2-(trifluoromethyl)benzyl]-7,8-dihydro-1H-furo[3,2-e]benzimidazole-5-carboxamide] are 85.5%, 99.4% and greater than 100 nM.
With `CC1(C)Cc2c(c(C(=O)Nc3ccc(C(F)(F)F)cc3)cc3nc(Nc4ccccc4Cl)[nH]c23)O1` [Example-89, 2-[(2-Chlorophenyl)amino]-7,7-dimethyl-N-[4-(trifluoromethyl)phenyl]-7,8-dihydro-1H-furo[3,2-e]benzimidazole-5-carboxamide], the inhibition at 1 µM was found to be 97.1%, the inhibition at 10 µM was 97.1% and the IC50 is less than 50 nM.
For the molecule `CC(C)c1ccc(NC(=O)c2cc3nc(Nc4c(Cl)cccc4Cl)[nH]c3c3c2OC(C)(C)C3)cc1` [Example-90, 2-[(2,6-Dichlorophenyl)amino]-7,7-dimethyl-N-[4-(propan-2-yl)phenyl]-7,8-dihydro-1H-furo[3,2-e]benzimidazole-5-carboxamide], the inhibition at 1 µM came to 97.7%, the inhibition at 10 µM is 98.4% and the IC50 was less than 50 nM.
As for `CC1(C)Cc2c(c(C(=O)Nc3ccc(C(F)(F)F)cc3)cc3nc(Nc4ccc(Cl)cc4Cl)[nH]c23)O1` [Example-91, 2-[(2,4-Dichlorophenyl)amino]-7,7-dimethyl-N-[4-(trifluoromethyl)phenyl]-7,8-dihydro-1H-furo[3,2-e]benzimidazole-5-carboxamide], the inhibition at 1 µM is 43.9% and the inhibition at 10 µM worked out at 60.2%.
In the same order, the values of `Cc1ccc(Nc2nc3cc(C(=O)NCc4ccc(C(F)(F)F)cc4)c4c(c3[nH]2)CC(C)(C)O4)c(Cl)c1` [Example-92, 2-[(2-Chloro-4-methylphenyl)amino]-7,7-dimethyl-N-[4-(trifluoromethyl)benzyl]-7,8-dihydro-1H-furo[3,2-e]benzimidazole-5-carboxamide] are 75.4% and 76%.
For the molecule `CC1(C)Cc2c(c(C(=O)NC3CCC(F)(F)CC3)cc3nc(Nc4c(Cl)cccc4Cl)[nH]c23)O1` [Example-93, 2-[(2,6-Dichlorophenyl)amino]-N-(4,4-difluorocyclohexyl)-7,7-dimethyl-7,8-dihydro-1H-furo[3,2-e]benzimidazole-5-carboxamide], the inhibition at 1 µM is 83.1% and the inhibition at 10 µM worked out at 80.9%.
Consider `CC1(C)Cc2c(c(C(=O)NCC(F)(F)C(F)(F)F)cc3nc(Nc4ccc(F)cc4Cl)[nH]c23)O1` [Example-94, 2-[(2-Chloro-4-fluorophenyl)amino]-7,7-dimethyl-N-(2,2,3,3,3-pentafluoropropyl)-7,8-dihydro-1H-furo[3,2-e]benzimidazole-5-carboxamide], for which the inhibition at 1 µM is 66% and the inhibition at 10 µM was determined as 76.4%.
Regarding `CC1(C)Cc2c(c(C(=O)Nc3nc4ccc(F)cc4s3)cc3nc(Nc4c(Cl)cccc4Cl)[nH]c23)O1` [Example-95, 2-[(2,6-Dichlorophenyl)amino]-N-(6-fluoro-1,3-benzothiazol-2-yl)-7,7-dimethyl-7,8-dihydro-1H-furo[3,2-e]benzimidazole-5-carboxamide], the inhibition at 1 µM came to 90.6%, the inhibition at 10 µM was 91.8% and the IC50 is less than 50 nM.
In the case of `CC1(C)Cc2c(c(C(=O)Nc3ccc(N4CCCC4)nc3)cc3nc(Nc4c(Cl)cccc4Cl)[nH]c23)O1` [Example-96, 2-[(2,6-Dichlorophenyl)amino]-7,7-dimethyl-N-[6-(pyrrolidin-1-yl)pyridin-3-yl]-7,8-dihydro-1H-furo[3,2-e]benzimidazole-5-carboxamide], the inhibition at 1 µM amounted to 90.4%, the inhibition at 10 µM came out at 95.1% and the IC50 was less than 50 nM.
In the same order, the values of `Cc1ccc(Cl)c(Nc2nc3cc(C(=O)Nc4ccccc4C(F)(F)F)c4c(c3[nH]2)CC(C)(C)O4)c1` [Example-97, 2-[(2-Chloro-5-methylphenyl)amino]-7,7-dimethyl-N-[2-(trifluoromethyl)phenyl]-7,8-dihydro-1H-furo[3,2-e]benzimidazole-5-carboxamide] are 96.7%, 95.3% and less than 50 nM.
With `CC1(C)Cc2c(c(C(=O)Nc3ccccc3C(F)(F)F)cc3nc(Nc4ccccc4C(C)(C)C)[nH]c23)O1` [Example-98, 2-[(2-tert-Butylphenyl)amino]-7,7-dimethyl-N-[2-(trifluoromethyl)phenyl]-7,8-dihydro-1H-furo[3,2-e]benzimidazole-5-carboxamide], the inhibition at 1 µM worked out at 12% and the inhibition at 10 µM was 13.9%.
With `COCCn1c(Nc2c(Cl)cccc2Cl)nc2cc(C(=O)Nc3ccc(C(F)(F)F)cc3)c3c(c21)CC(C)(C)O3` [Example-99, 2-[(2,6-Dichlorophenyl)amino]-1-(2-methoxyethyl)-7,7-dimethyl-N-[4-(trifluoromethyl)phenyl]-7,8-dihydro-1H-furo[3,2-e]benzimidazole-5-carboxamide], the inhibition at 1 µM amounted to 95.3%, the inhibition at 10 µM was 99.7% and the IC50 was less than 50 nM.

The record behind these values is US8519149B2, “Tricyclic compounds as mPGES-1 inhibitors” (Glenmark Pharmaceuticals S.A., priority 2010, dated 2013).
